Results on 21 molecules are retold here after patent EP2951180B1, “2,6,7,8 SUBSTITUTED PURINES AS HDM2 INHIBITORS” (Merck Sharp & Dohme Corp., priority 2013, dated 2014).

Where two headings read alike, the source gives them in different places.

This test has as its target T1, HDM2 (Homo sapiens, UniProt Q00987).
T1 construct: Thioredoxin (N); made in house; host or cells: E. coli strain BL21(DE3)Rosetta
Put plainly: HDM2 FRET assay (inhibition of binding of FITC labeled p53-pocket peptide to HDM2). Particulars: read-out: FRET IC50. Put shortly: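 Final: 0.5 nM His-HDM2, 3 nM FITC peptide, 0.25 nM Tb anti-His Ab; PBS, 0.01% BSA, 0.01% Tween-20; 0.1% DMSO.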

Setting [1] is: 0.5 nM HDM2 (residues 17 to 125), 3nM peptide, two hour incubation at room temperature.

T1 sequence (Q00987 17-125): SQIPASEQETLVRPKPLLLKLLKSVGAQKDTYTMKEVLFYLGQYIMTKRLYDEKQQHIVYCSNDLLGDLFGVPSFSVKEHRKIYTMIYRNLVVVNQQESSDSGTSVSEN

A word on the IC50: it is the concentration needed to halve the response being measured. Turning to `Cc1cc(C)n(-c2nc3nc(C(=O)O)nc(N[C@H](C)C4CCC4)c3n2Cc2ccc(C(F)(F)F)cc2)n1` [Example 9.59, 6-{[(1R)-1-cyclobutylethyl]amino}-8-(3,5-dimethyl-1H-pyrazol-1-yl)-7-[4-(trifluoromethyl)benzyl]-7H-purine-2-carboxylic acid], the IC50 (Table 9) stood at 292 nM. Regarding `CSC1(C(=O)O)CCN(c2nc(N[C@H](C)C3CCC3)c3c(n2)nc(N2CCOC[C@H]2c2ccccc2)n3C[C@H]2CC[C@H](C)CC2)C1` (stereo partly drawn) [Example 13.10, 1-(6-{[(1R)-1-cyclobutylethyl]amino}-7-[(trans-4-methylcyclohexyl)methyl]-8-[(3R)-3-phenylmorpholin-4-yl]-7H-purin-2-yl)-3-(methylsulfanyl)pyrrol idine-3-carboxylic acid], the IC50 under setting [1] turned out to be 248 nM. Consider `CC(=O)c1nc(N[C@H](C)C2CCC2)c2c(n1)nc(N1CCOC[C@H]1c1ccccc1)n2C[C@H]1CC[C@H](C)CC1` [Example 12.23, 1-(6-{[(1R)-1-cyclobutylethyl]amino}-7-[(trans-4-methylcyclohexyl)methyl]-8-[(3R)-3-phenylmorpholin-4-yl]-7H-purin-2-yl)ethanone], for which, under setting [1], the IC50 came out at 53.3 nM. Take `C[C@@H](Nc1nc(-c2noc(=O)[nH]2)nc2nc(N3CCOC4CCCC43)n(C[C@H]3CC[C@H](C)CC3)c12)C1CCC1` (single isomer, unassigned) [Example 11.149]: under “Table 11”, the IC50 worked out at 3.58 nM. Regarding `Cc1cccc(-c2nc3ncnc(N[C@H](CCCO)C4CCC4)c3n2Cc2ccc(C(F)(F)F)cc2)c1` [Example 7.3, (4R)-4-cyclobutyl-4-({8-(3-methylphenyl)-7-[4-(trifluoromethyl)benzyl]-7H-purin-6-yl}amino)butan-1-ol], for the setting “Table 7”, the IC50 worked out at 3240 nM.

`Cc1cccc(-c2nc3nc(C(=O)O)nc(N[C@H](CCC(N)=O)C4CCC4)c3n2Cc2ccc(C(F)(F)F)cc2)c1` [Example 7.12, 6-{[(1R)-4-amino-1-cyclobutyl-4-oxobutyl]amino}-8-(3-methylphenyl)-7-[4-(trifluoromethyl)benzyl]-7H-purine-2-carboxylic acid]: the IC50 (Table 7) is 55.3 nM.

For `CCN1CCC(C)CC1c1nc2nc(C(=O)O)nc(N[C@H](C)C3CCC3)c2n1C[C@H]1CC[C@H](C)CC1` (stereo partly drawn) [Example 10.34, 6-(((R)-1-Cyclobutylethyl)amino)-8-(1-ethyl-4-methylpiperidin-2-yl)-7-((trans-4-methylcyclohexyl)methyl)-7H-purine-2-carboxylic acid], the IC50 (Table 10) was 5.98 nM. Consider `C[C@@H](Nc1nc(C(=O)O)nc2nc(C3COCC3c3ccccc3)n(Cc3ccc(C(F)(F)F)cc3)c12)C1CCC1` (single isomer, unassigned) [Example 21.7], for which the IC50 (Table 21) was 28.7 nM.

With `CC1CCCN(c2nc3nc(C(=O)O)nc(N[C@H](C)C4CCC4)c3n2C[C@H]2CC[C@H](C)CC2)C1C` (stereo partly drawn) [Example 11.1, 6-(((R)-1-cyclobutylethyl)amino)-8-(2,3-dimethylpiperidin-1-yl)-7-((trans-4-methylcyclohexyl)methyl)-7H-purine-2-carboxylic acid], the IC50 (Table 11) amounted to 4.55 nM. Regarding `C[C@@H]1OCCN(c2nc3nc(-c4n[nH]c(=O)o4)nc(N[C@H](C)C4CCC4)c3n2C[C@H]2CC[C@H](C)CC2)[C@H]1C` (stereo in doubt) [Example 11.167, 5-(6-{[(1R)-1-cyclobutylethyl]amino}-8-[(trans)-2,3-dimethylmorpholin-4-yl]-7-[(trans-4-methylcyclohexyl)methyl]-7H-purin-2-yl)-1,3,4-oxadiazol-2(3H)-one], the IC50 (Table 11) worked out at 2.16 nM. With `COc1ccc(C)cc1-c1nc2nc(C(=O)O)nc(NC(C)C3CC(C)C3)c2n1Cc1ccc(C(F)(F)F)cc1` (stereo not drawn) [Example 7.18, 8-(2-methoxy-5-methylphenyl)-6-{[1-(3-methylcyclobutyl)ethyl]amino}-7-[4-(trifluoromethyl)benzyl]-7H-purine-2-carboxylic acid], for the setting “Table 7”, the IC50 came out at 162 nM. Consider `Cc1cccc(-c2nc3nc(C(=O)O)nc(NC4CCCC(C)C4)c3n2Cc2ccc(C(F)(F)F)cc2)c1` (stereo not drawn) [Example 6.20, 6-[(3-methylcyclohexyl)amino]-8-(3-methylphenyl)-7-[4-(trifluoromethyl)benzyl]-7H-purine-2-carboxylic acid], for which the IC50 (Table 6) worked out at 567 nM. As for `CC(C)C1CCCCN1c1nc2nc(C(=O)O)nc(N[C@H](C)C3CCC3)c2n1C[C@H]1CC[C@H](C)CC1` (stereo partly drawn) [Example 11.54, 6-{[(1R)-1-cyclobutylethyl]amino}-7-[(trans-4-methylcyclohexyl)methyl]-8-[2-(1-methylethyl)piperidin-1-yl] -7H-purine-2-carboxylic acid], the IC50 (Table 11) is 3.31 nM. Turning to `C[C@@H](Nc1nc(C(=O)O)nc2nc(COCc3ccccc3)n(Cc3ccc(C(F)(F)F)cc3)c12)C1CCC1` [Example 10.2, (R)-8-((benzyloxy)methyl)-6-((1-cyclobutylethyl)amino)-7-(4-(trifluoromethyl)benzyl)-7H-purine-2-carboxylic acid], the IC50 (Table 10) was determined as 21.6 nM. Regarding `C[C@@H](Nc1nc(-c2noc(=O)[nH]2)nc2nc(N3CCCCC3c3cccnc3)n(C[C@H]3CC[C@H](C)CC3)c12)C1CCC1` (single isomer, unassigned) [Example 11.49], for the setting “Table 11”, the IC50 worked out at 2.43 nM. On to `C[C@@H]1COC[C@H](C)N1c1nc2nc(-c3noc(=O)[nH]3)nc(-c3cccc(Cl)c3)c2n1C[C@H]1CC[C@H](C)CC1` [Example 16.67, 3-{6-(3-chlorophenyl)-8-[(3R,5S)-3,5-dimethylmorpholin-4-yl]-7-[(trans-4-methylcyclohexyl)methyl]-7H-purin-2-yl}-1,2,4-oxadiazol-5(4H)-one], for which the IC50 under setting [1] was 6.36 nM. Take `C[C@@H]1COCCN1c1nc2nc(-c3n[nH]c(=O)o3)nc(-c3cncc(Cl)c3)c2n1C[C@H]1CC[C@H](C)CC1` [Example 16.11, 5-(6-(5-chloropyridin-3-yl)-7-(((trans)-4-methylcyclohexyl)methyl)-8-((R)-3-methylmorpholino)-7H-purin-2-yl)-1,3,4-oxadiazol-2(3H)-one]: the IC50 under setting [1] amounted to 27.7 nM.

For the molecule `CC[C@H](Nc1nc2nc(C(=O)O)nc(N[C@H](C)C3CCC3)c2n1Cc1ccc(C(F)(F)F)cc1)c1ccccc1` [Example 9.36, 6-{[(1R)-1-cyclobutylethyl]amino}-8-{[(1S)-1-phenylpropyl]amino}-7-[4-(trifluoromethyl)benzyl]-7H-purine-2-carboxylic acid], under “Table 9”, the IC50 came to 0.862 nM. For the molecule `COC1(c2nc3nc(-c4noc(=O)[nH]4)nc(-c4cncc(Cl)c4)c3n2C[C@H]2CC[C@H](C)CC2)COC1` [Example 23.70, 3-{6-(5-chloropyridin-3-yl)-8-(3-methoxyoxetan-3-yl)-7-[(trans-4-methylcyclohexyl)methyl] -7H-purin-2-yl}-1,2,4-oxadiazol-5(4H)-one], the IC50 (Table 23) came to 9.44 nM. Regarding `Cc1cccc(-c2nc3nc(C(=O)O)nc(N4CCC4C4CCC4)c3n2Cc2ccc(C(F)(F)F)cc2)c1` (stereo not drawn) [Example 6.93, 6-(2-cyclobutylazetidin-1-yl)-8-(3-methylphenyl)-7-[4-(trifluoromethyl)benzyl]-7H-purine-2-carboxylic acid], under “Table 6”, the IC50 is 806 nM. As for `CC(c1ccccn1)c1nc2nc(-c3noc(=O)[nH]3)nc(N[C@H](C)C3CCC3)c2n1C[C@H]1CC[C@H](C)CC1` (stereo partly drawn) [Example 22.71, 3-[6-{[(1R)-1-cyclobutylethyl]amino}-7-[(trans-4-methylcyclohexyl)methyl] -8-(1-pyridin-2-ylethyl)-7H-purin-2-yl]-1,2,4-oxadiazol-5(4H)-one], for the setting “Table 22”, the IC50 worked out at 6.49 nM.
